Reference: patent EP0026410A1, “Combinations of active ingredients, their preparation and use, as well as pharmaceutical preparations” (F. HOFFMANN-LA ROCHE & CO. Aktiengesellschaft, priority 1979, dated 1981)
In brackets after ≈: the same amount, converted by molar mass. Where two headings read alike, the source gives them in different places.

Experiments:
Pseudomonas aeruginosa [1] = test: In vitro M.I.C. of Nocardicin A, peptide and their mixtures against Pseudomonas aeruginosa strains; assay type: cell-based
Proteus vulgaris = test: In vitro M.I.C. of Nocardicin A, peptide and mixtures against Proteus vulgaris; assay type: cell-based
Serratia marcescens = test: In vitro M.I.C. of Nocardicin A, peptide and mixtures against Serratia marcescens; assay type: cell-based
P. mirabilis = test: In vitro M.I.C. of Nocardicin A, peptide and mixtures against Proteus species; assay type: cell-based
P. morganii = test: as above; assay type: cell-based; details: Morganella morganii; P. morganii Stamm 501041; substance alone
P. rettgeri = test: as above; assay type: cell-based; details: Providencia rettgeri; P. rettgeri Stamm 503010; substance alone
Pseudomonas aeruginosa [2] = test: Microtiter checkerboard method, M.I.C. after 18 h incubation; assay type: cell-based; details: for MIC: Pseudomonas aeruginosa
Experimental: Die in vitro Aktivität der erfindungsgemässen Kombinationen kann auch nach der Mikrotiter-Schachbrett-Methode gezeigt werden. Bei dieser Methode werden Filter-sterilisierte Grundlösungen von Verbindungen I und einem Nocardicin-Antibiotikum hergestellt, die 4,8mal so konzentriert sind wie die zu testenden Lösungen. Aliquote Teile des Kulturmediums (50 ul)wurden in alle 12 (1-12) x 8 (A-H) Löcher der Mikrotiter-Platte gegeben, mit Ausnahme des Loches 12H. Jeweils 50 µl der Peptid-Lösung wurden dann in jedes Loch der zwölften Reihe gegeben und 100 µl in das Loch 12H. Die peptidhaltigen Lösungen wurden dann innerhalb der Reihen A-H dadurch verdünnt, dass man jeweils 50 µl aus der Reihe 12 in die Reihe 11 übertrug, gut vermischte, und wieder jeweils 50 µl in die Reihe 10 übertrug und dieses Prozedere bis zur Reihe 2 wiederholte, so dass die Reihe 1 ausgelassen wurde. Dann wurden je 50 µl einer Lösung eines Nocardicin-Antibiotikums in jedes Loch der Reihe H gegeben und ebenfalls in der vorstehend beschriebenen Weise verdünnt innerhalb der Reihen 1-12, wobei das letzte Loch in jeder Reihe wiederum ausgelassen wurde. Nachdem die Volumina überall durch Zusatz von 50 ul Nährflüssigkeit auf 100 µl gebracht wurden, wurden jeweils 20 µl einer 1/1000 Verdünnung einer über Nacht angesetzten Kultur eines Testorganismus zugesetzt. Durch Schütteln wurde für eine gleichmässige Verteilung gesorgt, woraufhin die Platten mit Klebstreifen verschlossen wurden. Die minimalen Hemmkonzentrationen wurden als diejenigen minimalen Konzentrationen bestimmt, die nach 18-stündiger Inkubation der Kulturen eine sichtbare Trübung verhinderten. Die Ergebnisse mit (1R)-1-(L-Norvalylamino)-ethylphosphonsäure und Nocardicin D sind in der Tabelle V zusammengestellt.

Ps. aeruginosa = test: In vivo activity in Pseudomonas septicaemia of mice; set-up: species or system Mäusen; details: sc, 5 h
Text: Die in vivo Aktivitäten der erfindungsgemässen Kombinationen wurden mittels Pseudomonas-Septikämien an Mäusen getestet, wobei die Verabreichung eine Stunde, 3 Stunden -und 5 Stunden nach intraperitonealer Infektion erfolgte. Die Ergebnisse, die mit (1R)-1-(L-Norvalylamino)-ethylphosphonsäure und Nocardicin A erreicht wurden, sind in der folgenden Tabelle VI zusammengefasst.

[3] = Tabelle IV, Ps. aeruginosa (strain not named), substance alone
[4] = Tabelle IV, P. vulgaris (strain not named), substance alone
[5] = Tabelle IV, S. marcescens (strain not named), substance alone
[6] = NCTC2099, Stamm NCTC 2099, substance alone
[7] = NCTC2100, Stamm NCTC 2100, substance alone
[8] = Stamm NC1B 8295, substance alone
[9] = P. mirabilis Stamm 502010, substance alone
[10] = P. mirabilis Stamm 502012, substance alone
[11] = P. mirabilis Stamm 502015, substance alone
[12] = P. mirabilis Stamm 502038, substance alone
[13] = P. vulgaris Stamm 505030, substance alone
[14] = P. vulgaris Stamm 505031, substance alone
[15] = ATCC14756, S. marcescens Stamm ATCC 14756, substance alone
[16] = S. marcescens Stamm 542007, substance alone
[17] = S. marcescens Stamm 542010, substance alone
[18] = S. marcescens Stamm 542012, substance alone
[19] = S. marcescens Stamm 542017, substance alone

CCC[C@H](N)C(=O)NCP(=O)(O)O [1-(L-Norvalylamino)-methylphosphonsäure]
MIC (Pseudomonas aeruginosa [1]; [3]): > 128 µg/mL | MIC (Proteus vulgaris; [4]): 45.2 µg/mL (≈ 215 µM) | MIC (Serratia marcescens; [5]): 4 µg/mL (≈ 19 µM)

CCC[C@H](N)C(=O)N[C@@H](C)P(=O)(O)O [(1R)-1-(L-Norvalylamino)-ethylphosphonsäure]
MIC (Pseudomonas aeruginosa [1]; [6]): 256 µg/mL (≈ 1140 µM) | MIC (Pseudomonas aeruginosa [1]; [7]): > 256 µg/mL | MIC (Pseudomonas aeruginosa [1]; Stamm 511004, substance alone): > 256 µg/mL | MIC (Pseudomonas aeruginosa [1]; Stamm 511005, substance alone): 4 µg/mL (≈ 17.8 µM) | MIC (Pseudomonas aeruginosa [1]; Stamm 511007, substance alone): > 256 µg/mL | MIC (Pseudomonas aeruginosa [1]; Stamm 511012, substance alone): > 256 µg/mL | MIC (Pseudomonas aeruginosa [1]; Stamm 511015, substance alone): 128 µg/mL (≈ 571 µM) | MIC (Pseudomonas aeruginosa [1]; Stamm 511016, substance alone): 32 µg/mL (≈ 143 µM) | MIC (Pseudomonas aeruginosa [1]; Stamm 511019, substance alone): > 256 µg/mL | MIC (Pseudomonas aeruginosa [1]; Stamm 511026, substance alone): > 256 µg/mL | MIC (Pseudomonas aeruginosa [1]; Stamm 511027, substance alone): 45 µg/mL (≈ 201 µM) | MIC (Pseudomonas aeruginosa [1]; Stamm 511028, substance alone): > 256 µg/mL | MIC (Pseudomonas aeruginosa [1]; Stamm 511029, substance alone): > 256 µg/mL | MIC (Pseudomonas aeruginosa [1]; Stamm 511030, substance alone): 256 µg/mL (≈ 1140 µM) | MIC (Pseudomonas aeruginosa [1]; Stamm 511032, substance alone): 256 µg/mL (≈ 1140 µM) | MIC (Pseudomonas aeruginosa [1]; Stamm 511033, substance alone): 256 µg/mL (≈ 1140 µM) | MIC (Pseudomonas aeruginosa [1]; Stamm 511036, substance alone): 256 µg/mL (≈ 1140 µM) | MIC (Pseudomonas aeruginosa [1]; Stamm 511038, substance alone): 256 µg/mL (≈ 1140 µM) | MIC (Pseudomonas aeruginosa [1]; Stamm 511041, substance alone): 256 µg/mL (≈ 1140 µM) | MIC (Pseudomonas aeruginosa [1]; [8]): 64 µg/mL (≈ 285 µM) | MIC (P. mirabilis; [9]): 22.6 µg/mL (≈ 101 µM) | MIC (P. mirabilis; [10]): 22.6 µg/mL (≈ 101 µM) | MIC (P. mirabilis; [11]): 22.6 µg/mL (≈ 101 µM) | MIC (P. mirabilis; [12]): 22.6 µg/mL (≈ 101 µM) | MIC (P. morganii): 64 µg/mL (≈ 285 µM) | MIC (P. rettgeri): 4 µg/mL (≈ 17.8 µM) | MIC (Proteus vulgaris; [13]): 5.7 µg/mL (≈ 25.4 µM) | MIC (Proteus vulgaris; [14]): 8 µg/mL (≈ 35.7 µM) | MIC (Serratia marcescens; [15]): 1 µg/mL (≈ 4.46 µM) | MIC (Serratia marcescens; [16]): 1 µg/mL (≈ 4.46 µM) | MIC (Serratia marcescens; [17]): 1 µg/mL (≈ 4.46 µM) | MIC (Serratia marcescens; [18]): 1 µg/mL (≈ 4.46 µM) | MIC (Serratia marcescens; [19]): 1 µg/mL (≈ 4.46 µM) | MIC (Pseudomonas aeruginosa [2]; Stamm 511019, substance alone): > 256 µg/mL | MIC (Pseudomonas aeruginosa [2]; Stamm 511027, substance alone): 64 µg/mL | MIC (Pseudomonas aeruginosa [2]; Stamm 511030, substance alone): 256 µg/mL | ED50 (Ps. aeruginosa; read-out: CD50, Ps. aeruginosa 143724, s.c. 3 x (1, 3, 5 h after i.p. infection), substance alone): > 200 mg/kg | ED50 (Ps. aeruginosa; read-out: CD50, Ps. aeruginosa 143811, s.c. 3 x (1, 3, 5 h after i.p. infection), substance alone): > 200 mg/kg | ED50 (Ps. aeruginosa; read-out: CD50, Ps. aeruginosa BA, s.c. 3 x (1, 3, 5 h after i.p. infection), substance alone): > 200 mg/kg | ED50 (Ps. aeruginosa; read-out: CD50, Ps. aeruginosa M 7801, s.c. 3 x (1, 3, 5 h after i.p. infection), substance alone): 135 mg/kg

N[C@H](CCOc1ccc(/C(=N/O)C(=O)N[C@H]2CN([C@@H](C(=O)O)c3ccc(O)cc3)C2=O)cc1)C(=O)O [Nocardicin A]
MIC (Pseudomonas aeruginosa [1]; [6]): 16 µg/mL (≈ 32 µM) | MIC (Pseudomonas aeruginosa [1]; [7]): 32 µg/mL (≈ 63.9 µM) | MIC (Pseudomonas aeruginosa [1]; Stamm 511004, substance alone): 32 µg/mL (≈ 63.9 µM) | MIC (Pseudomonas aeruginosa [1]; Stamm 511005, substance alone): 4 µg/mL (≈ 7.99 µM) | MIC (Pseudomonas aeruginosa [1]; Stamm 511007, substance alone): 16 µg/mL (≈ 32 µM) | MIC (Pseudomonas aeruginosa [1]; Stamm 511012, substance alone): 32 µg/mL (≈ 63.9 µM) | MIC (Pseudomonas aeruginosa [1]; Stamm 511015, substance alone): 16 µg/mL (≈ 32 µM) | MIC (Pseudomonas aeruginosa [1]; Stamm 511016, substance alone): 64 µg/mL (≈ 128 µM) | MIC (Pseudomonas aeruginosa [1]; Stamm 511019, substance alone): 64 µg/mL (≈ 128 µM) | MIC (Pseudomonas aeruginosa [1]; Stamm 511026, substance alone): 181 µg/mL (≈ 362 µM) | MIC (Pseudomonas aeruginosa [1]; Stamm 511027, substance alone): 8 µg/mL (≈ 16 µM) | MIC (Pseudomonas aeruginosa [1]; Stamm 511028, substance alone): 16 µg/mL (≈ 32 µM) | MIC (Pseudomonas aeruginosa [1]; Stamm 511029, substance alone): 256 µg/mL (≈ 512 µM) | MIC (Pseudomonas aeruginosa [1]; Stamm 511030, substance alone): 16 µg/mL (≈ 32 µM) | MIC (Pseudomonas aeruginosa [1]; Stamm 511032, substance alone): 32 µg/mL (≈ 63.9 µM) | MIC (Pseudomonas aeruginosa [1]; Stamm 511033, substance alone): 32 µg/mL (≈ 63.9 µM) | MIC (Pseudomonas aeruginosa [1]; Stamm 511036, substance alone): 16 µg/mL (≈ 32 µM) | MIC (Pseudomonas aeruginosa [1]; Stamm 511038, substance alone): 256 µg/mL (≈ 512 µM) | MIC (Pseudomonas aeruginosa [1]; Stamm 511041, substance alone): 32 µg/mL (≈ 63.9 µM) | MIC (Pseudomonas aeruginosa [1]; [8]): > 256 µg/mL | MIC (Pseudomonas aeruginosa [1]; [3]): 8 µg/mL (≈ 16 µM) | MIC (P. mirabilis; [9]): 8 µg/mL (≈ 16 µM) | MIC (P. mirabilis; [10]): 8 µg/mL (≈ 16 µM) | MIC (P. mirabilis; [11]): 4 µg/mL (≈ 7.99 µM) | MIC (P. mirabilis; [12]): 32 µg/mL (≈ 63.9 µM) | MIC (P. morganii): 8 µg/mL (≈ 16 µM) | MIC (P. rettgeri): 8 µg/mL (≈ 16 µM) | MIC (Proteus vulgaris; [13]): 4 µg/mL (≈ 7.99 µM) | MIC (Proteus vulgaris; [14]): 32 µg/mL (≈ 63.9 µM) | MIC (Proteus vulgaris; [4]): 64 µg/mL (≈ 128 µM) | MIC (Serratia marcescens; [15]): 8 µg/mL (≈ 16 µM) | MIC (Serratia marcescens; [16]): 11.3 µg/mL (≈ 22.6 µM) | MIC (Serratia marcescens; [17]): 11.3 µg/mL (≈ 22.6 µM) | MIC (Serratia marcescens; [18]): 8 µg/mL (≈ 16 µM) | MIC (Serratia marcescens; [19]): 16 µg/mL (≈ 32 µM) | MIC (Serratia marcescens; [5]): 16 µg/mL (≈ 32 µM) | ED50 (Ps. aeruginosa; Ps. aeruginosa 143724, s.c. 3 x (1, 3, 5 h after i.p. infection), substance alone, read-out: CD50 (the source's name)): > 50 mg/kg | ED50 (Ps. aeruginosa; Ps. aeruginosa 143811, s.c. 3 x (1, 3, 5 h after i.p. infection), substance alone, read-out: CD50 (the source's name)): > 50 mg/kg | ED50 (Ps. aeruginosa; Ps. aeruginosa BA, s.c. 3 x (1, 3, 5 h after i.p. infection), substance alone, read-out: CD50 (the source's name)): 43 mg/kg | ED50 (Ps. aeruginosa; Ps. aeruginosa M 7801, s.c. 3 x (1, 3, 5 h after i.p. infection), substance alone, read-out: CD50 (the source's name)): > 50 mg/kg

N[C@H](CCOc1ccc(C(=O)C(=O)N[C@H]2CN([C@@H](C(=O)O)c3ccc(O)cc3)C2=O)cc1)C(=O)O [Nocardicin D]
M.I.C. (Pseudomonas aeruginosa [2]; Stamm 511019, substance alone): >512 µg/mL | M.I.C. (Pseudomonas aeruginosa [2]; Stamm 511027, substance alone): 512 µg/mL | M.I.C. (Pseudomonas aeruginosa [2]; Stamm 511030, substance alone): 128 µg/mL
